Experimental data reported in patent US5837839A, “DNA coding sequences for mevalonate Pyrophosphate decarboxylase” (Novartis Finance Corporation, priority 1996, dated 1998).

Legend:
[1] = target: T1, partially purified human liver MPD (mevalonate pyrophosphate decarboxylase) (Homo sapiens, UniProt P53602); assay: Inhibition of partially purified human liver MPD by phenylglyoxal; type: biochemical; conditions: partially purified enzyme; no concentration stated
T1 construct: from tissue; host or cells: human liver
T1 sequence (P53602 1-400): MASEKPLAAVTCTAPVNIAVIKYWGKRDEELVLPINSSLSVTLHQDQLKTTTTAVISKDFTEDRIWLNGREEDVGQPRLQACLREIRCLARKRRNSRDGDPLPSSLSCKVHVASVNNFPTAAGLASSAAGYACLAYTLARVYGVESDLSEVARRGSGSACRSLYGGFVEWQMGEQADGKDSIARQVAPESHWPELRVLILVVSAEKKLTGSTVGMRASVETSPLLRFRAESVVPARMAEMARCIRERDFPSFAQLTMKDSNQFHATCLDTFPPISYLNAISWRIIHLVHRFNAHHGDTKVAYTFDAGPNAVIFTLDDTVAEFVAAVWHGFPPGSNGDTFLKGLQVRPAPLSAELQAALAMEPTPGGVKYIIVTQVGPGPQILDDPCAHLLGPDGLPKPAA
Text: This agrees with the work of Jabalquinto et al., (1983) Arch. Biochem. Biophys. […] They concluded that a single arginine is near the binding site of ATP and MevPP in the chicken liver enzyme. To this end, the Arg27Lys and Arg153Lys mutants were made using the AAA lysine codon triplet and a single-stranded DNA template isolated from pO-3. These mutated cDNAs were subcloned into pET14-b and expressed like p11-4 as described above. […] The Arg27Lys mutant appears to produce lower activity compared to the parent plasmid ([…]) from which it was derived, but this may not be a significant difference. […] Antisera against MPD for the Westerns was made with material expressed in E. coli from plasmid p11-4.
Cell pellets from the various expression systems were sonicated in homogenization buffer (20 mM Tris/HCl pH 7.5, 15 mM EDTA, 15 mM EGTA, 100 μM Leupeptin, 0.75 mg/l Aprotinin, 0.1 mM PMSF) and assayed directly for enzyme activity and protein concentration. Activity was measured as the conversion of labelled mevalonate pyrophosphate into isopentenyl pyrophosphate. […] 2 ml of Econofluor-2 (New England Nuclear) was added to the assay mixture the sample was capped, shaken, and counted on a scintillation counter. Because of the organic nature of the scintillation fluid, dephosphorylated product (isopentenyl) is solubilized and counted whereas dephosphorylated substrate (mevalonic acid) is not. […]

[2] = system: chicken liver MPD (mevalonate pyrophosphate decarboxylase); conditions: pseudo-first order kinetics; ATP and MevPP protect against inactivation; cited from earlier work

O=CC(=O)c1ccccc1 [phenylgloxal]
inhibition of MPD [1]: inhibited
inactivation of MPD [2]: inactivated
